Assays:
[1] = tested on: REH+EGFR cells; assay: Cell viability, CellTiter-Glo 2.0 Assay; assay type: cell-based, human; settings: free GEM 0 to 30 uM 1 hour, viability at 24 hours
Procedure: (§1) Whole human blood was acquired from healthy donors with informed consent and stabilized in K2EDTA tubes (BD Biosciences). hRBCs were purified following reported procedure (Liao et al., 2011), then incubated with either bare mMSNs or protocells (25, 50, 100, 200, and 400 μg/mL) at 37° C. After 3 hours of exposure, samples were centrifuged at 300 g for 3 minutes, then 100 μL of supernatant from each sample was transferred to a 96-well plate. Hemoglobin absorbance was measured using a BioTek microplate reader (Winooski, Vt.) at 541 nm. The percent hemolysis of each sample was quantified using a reported equation (Liao et al., 2011). In addition, we examined the biocompatibility of anti-EGFR targeted protocells in vitro. We incubated about 1.5×10^5 cells/mL of REH and REH+EGFR cell lines with either 12.5, 25, 50, 100, and 200 μg/mL of anti-EGFR targeted protocells in complete medium for 1 hour at 37° C. Cells were washed twice in complete media and transferred to a 96-well plate for 24 hours at 37° C. Cell viability was assessed by CellTiter-Glo® 2.0 Assay as measured by BioTek microplate reader. The cell viability was calculated as a percentage of non-protocell treated sample.
(§2) […] Cell viability was assessed by CellTiter-Glo® 2.0 Assay as measured by BioTek microplate reader. The cell viability was calculated as a percentage of non-protocell treated sample.

[2] = tested on: REH cells; assay: Cell viability, CellTiter-Glo 2.0 Assay; assay type: cell-based, human; settings: free GEM 0 to 30 uM 1 hour, viability at 24 hours
Procedure: as §1, §2

[3] = Federico et al., 2012; cited from earlier work

SMILES: Nc1ccn([C@@H]2O[C@H](CO)[C@@H](O)C2(F)F)c(=O)n1 [GEM, Gemcitabine]
- viability of REH+EGFR cells [1]: Loss in cell viability of REH and REH+EGFR cells
- viability of REH cells [2]: Loss in cell viability of REH and REH+EGFR cells
- plasma half-life [3]: 8 to 17 min
